Measurements: US6559101B2, “N- (5, 7-dimethoxy [1, 2, 4] triazolo [1, 5-a] pyrimidin-2-yl) arylsulfonamide compounds and their use as herbicides” (Dow AgroSciences LLC, priority 2000, dated 2003)

Experiments:
Type in all cases: in vivo
[1] = system: Rox orange sorghum (Sorghum bicolor); assay: Postemergence herbicidal activity; details: scored after 2 weeks, 0 no injury, 100 complete kill
Description: (§1) Seeds of the desired test plant species were planted in Grace-Sierra MetroMix® 306 planting mixture, which typically has a pH of 6.0 to 6.8 and an organic matter content of about 30 percent, in plastic pots with a surface area of 64 square centimeters. When required to ensure good germination and healthy plants, a fungicide treatment and/or other chemical or physical treatment was applied. The plants were grown for 7-21 days in a greenhouse with an approximately 15 hr photoperiod which was maintained at about 23-29° C. during the day and 22-28° C. during the night. Nutrients and water were added on a regular basis and supplemental lighting was provided with overhead metal halide 1000 Watt lamps as necessary. The plants were employed for testing when they reached the first or second true leaf stage. A weighed amount of each test compound, determined by the highest rate to be tested, was placed in a 20 mL glass vial and was dissolved in 4 mL of a 97:3 v/v (volume/volume) mixture of acetone and dimethyl sulfoxide to obtain concentrated stock solutions. […] The concentrated stock solutions obtained were diluted with an aqueous mixture containing acetone, water, iso-propyl alcohol, dimethyl sulfoxide, Atplus 411F crop oil concentrate, and Triton X-155 surfactant (methylenebisdiamyl phenoxy polyethoxy ethanol) in a 48.5:39:10:1.5:1.0:0.02 v/v ratio to obtain spray solutions of known concentration. The solutions containing the highest concentration to be tested were prepared by diluting 2 mL aliquots of the stock solution with 13 mL of the mixture and lower concentrations were prepared by dilution of appropriate smaller portions of the stock solution. Approximately 1.5 mL aliquots of each solution of known concentration were sprayed evenly onto each of the test plant pots using a Devilbiss atomizer driven by compressed air pressure of 2 to 4 psi (140 to 280 kiloPascals) to obtain thorough coverage of each plant. Control plants were sprayed in the same manner with the aqueous mixture. In this test an application rate of 1 ppm results in the application of approximately 1 g/ha. The treated plants and control plants were placed in a greenhouse as described above and watered by sub-irrigation to prevent wash-off of the test compounds. After 2 weeks the condition of the test plants as compared with that of the untreated plants was determined visually and scored on a scale of 0 to 100 percent where 0 corresponds to no injury and 100 corresponds to complete kill.

[2] = system: blackgrass (Alopecurus myosuroides); assay: Postemergence herbicidal activity; details: scored after 2 weeks, 0 no injury, 100 complete kill
Description: as §1

[3] = system: chickweed (Stellaria media); assay: Postemergence herbicidal activity; details: scored after 2 weeks, 0 no injury, 100 complete kill
Description: as §1

[4] = system: cocklebur (Xanthium strumarium); assay: Postemergence herbicidal activity; details: scored after 2 weeks, 0 no injury, 100 complete kill
Description: as §1

[5] = system: giant foxtail (Setaria faberi); assay: Postemergence herbicidal activity; details: scored after 2 weeks, 0 no injury, 100 complete kill
Description: as §1

[6] = system: lambsquarters (Chenopodium album); assay: Postemergence herbicidal activity; details: scored after 2 weeks, 0 no injury, 100 complete kill
Description: as §1

[7] = system: morningglory (Ipomoea hederacea); assay: Postemergence herbicidal activity; details: 62.5 ppm; scored after 2 weeks; 0 no injury, 100 complete kill
Description: as §1

[8] = system: pigweed (Amaranthus retroflexus); assay: Postemergence herbicidal activity; details: scored after 2 weeks, 0 no injury, 100 complete kill
Description: as §1

[9] = system: velvetleaf (Abutilion theophrasti); assay: Postemergence herbicidal activity; details: scored after 2 weeks, 0 no injury, 100 complete kill
Description: as §1

[10] = system: viola (Viola tricolor); assay: Postemergence herbicidal activity; details: scored after 2 weeks, 0 no injury, 100 complete kill
Description: as §1

[11] = system: wild buckwheat (Polygonum convolvulus); assay: Postemergence herbicidal activity; details: scored after 2 weeks, 0 no injury, 100 complete kill
Description: as §1

[12] = system: wild oats (Avena fatua); assay: Postemergence herbicidal activity; details: scored after 2 weeks, 0 no injury, 100 complete kill
Description: as §1

[13] = system: Rox orange sorghum (Sorghum bicolor); assay: Preemergence herbicidal activity; details: scored after 3 weeks, 0 no injury, 100 complete kill or no germination
Description: (§2) The soil matrix was contained in plastic pots with a surface area of 161 square centimeters. When required to ensure good germination and healthy plants, a fungicide treatment and/or other chemical or physical treatment was applied. A weighed amount, determined by the highest rate to be tested, of each test compound was placed in a 20 mL glass vial and was dissolved in 8 mL of a 97:3 v/v (volume/volume) mixture of acetone and dimethyl sulfoxide to obtain concentrated stock solutions. […] The stock solutions obtained were diluted with a 99.9:0.1 mixture of water and Tween® 155 surfactant (ethoxylated sorbitan fatty acid ester) to obtain application solutions of known concentration. The solutions containing the highest concentration to be tested were prepared by diluting 4 mL aliquots of the stock solution with 8.5 mL of the mixture and lower concentrations were prepared by dilution of appropriate smaller portions of the stock solution. A 2.5 mL aliquot of each solution of known concentration was sprayed evenly onto the soil of each seeded pot using a Cornwall 5.0 mL glass syringe fitted with a TeeJet TN-3 hollow cone nozzle to obtain thorough coverage of the soil in each pot. Control pots were sprayed in the same manner with the aqueous mixture. A highest application rate of 4.48 kg/ha is achieved when 50 mg of test compound is employed. The treated pots and control pots were placed in a greenhouse with an approximately 15 hr photoperiod which was maintained at about 23-29° C. during the day and 22-28° C. during the night. Nutrients and water were added on a regular basis and supplemental lighting was provided with overhead metal halide 1000 Watt lamps as necessary. The water was added by top-irrigation. After 3 weeks the condition of the test plants that germinated and grew as compared with that of the untreated plants that germinated and grew was determined visually and scored on a scale of 0 to 100 percent where 0 corresponds to no injury and 100 corresponds to complete kill or no germination.

[14] = system: barnyardgrass (Echinochloa crus-galli); assay: Preemergence herbicidal activity; details: scored after 3 weeks, 0 no injury, 100 complete kill or no germination
Description: as §2

[15] = system: blackgrass (Alopecurus myosuroides); assay: Preemergence herbicidal activity; details: scored after 3 weeks, 0 no injury, 100 complete kill or no germination
Description: as §2

[16] = system: cocklebur (Xanthium strumarium); assay: Preemergence herbicidal activity; details: scored after 3 weeks, 0 no injury, 100 complete kill or no germination
Description: as §2

[17] = system: crabgrass (Digitaria sanguinalis); assay: Preemergence herbicidal activity; details: scored after 3 weeks, 0 no injury, 100 complete kill or no germination
Description: as §2

[18] = system: giant foxtail (Setaria faberi); assay: Preemergence herbicidal activity; details: scored after 3 weeks, 0 no injury, 100 complete kill or no germination
Description: as §2

[19] = system: morningglory (Ipomoea hederacea); assay: Preemergence herbicidal activity; details: scored after 3 weeks, 0 no injury, 100 complete kill or no germination
Description: as §2

[20] = system: pigweed (Amaranthus retroflexus); assay: Preemergence herbicidal activity; details: scored after 3 weeks, 0 no injury, 100 complete kill or no germination
Description: as §2

[21] = system: velvetleaf (Abutilion theophrasti); assay: Preemergence herbicidal activity; details: scored after 3 weeks, 0 no injury, 100 complete kill or no germination
Description: as §2

[22] = system: wild oats (Avena fatua); assay: Preemergence herbicidal activity; details: scored after 3 weeks, 0 no injury, 100 complete kill or no germination
Description: as §2

[23] = system: wild poinsettia (Euphorbia heterophylla); assay: Preemergence herbicidal activity; details: scored after 3 weeks, 0 no injury, 100 complete kill or no germination
Description: as §2

COc1cc(OC)n2nc(NS(=O)(=O)c3cc(Cl)ccc3OC)nc2n1 [Compound 5]
Postemergence herbicidal activity SORBI ([1]; 62.5 ppm): 100% | Postemergence herbicidal activity ALOMY ([2]; 62.5 ppm): 95% | Postemergence herbicidal activity STEME ([3]; 62.5 ppm): 98% | Postemergence herbicidal activity XANST ([4]; 62.5 ppm): 100% | Postemergence herbicidal activity SETFA ([5]; 62.5 ppm): 98% | Postemergence herbicidal activity CHEAL ([6]; 62.5 ppm): 95% | Postemergence herbicidal activity IPOHE [7]: 80% | Postemergence herbicidal activity AMARE ([8]; 62.5 ppm): 100% | Postemergence herbicidal activity ABUTH ([9]; 62.5 ppm): 98% | Postemergence herbicidal activity VIOTR ([10]; 62.5 ppm): 90% | Postemergence herbicidal activity POLCO ([11]; 62.5 ppm): 98% | Postemergence herbicidal activity AVEFA ([12]; 62.5 ppm): 99% | Preemergence herbicidal activity SORBI ([13]; 70 g/Ha): 95% | Preemergence herbicidal activity ECHCG ([14]; 70 g/Ha): 98% | Preemergence herbicidal activity ALOMY ([15]; 70 g/Ha): 100% | Preemergence herbicidal activity XANST ([16]; 70 g/Ha): 85% | Preemergence herbicidal activity DIGSA ([17]; 70 g/Ha): 99% | Preemergence herbicidal activity SETFA ([18]; 70 g/Ha): 98% | Preemergence herbicidal activity IPOHE ([19]; 70 g/Ha): 75% | Preemergence herbicidal activity AMARE ([20]; 70 g/Ha): 99% | Preemergence herbicidal activity ABUTH ([21]; 70 g/Ha): 95% | Preemergence herbicidal activity AVEFA ([22]; 70 g/Ha): 99% | Preemergence herbicidal activity EPHHL ([23]; 70 g/Ha): 90%

COc1cc(OC)n2nc(NS(=O)(=O)c3c(OC)cccc3OC)nc2n1 [Compound 2]
Postemergence herbicidal activity SORBI ([1]; 15.6 ppm): 100% | Postemergence herbicidal activity ALOMY ([2]; 15.6 ppm): 98% | Postemergence herbicidal activity STEME ([3]; 15.6 ppm): 98% | Postemergence herbicidal activity XANST ([4]; 15.6 ppm): 70% | Postemergence herbicidal activity SETFA ([5]; 15.6 ppm): 98% | Postemergence herbicidal activity CHEAL ([6]; 15.6 ppm): 90% | Postemergence herbicidal activity AMARE ([8]; 15.6 ppm): 95% | Postemergence herbicidal activity ABUTH ([9]; 15.6 ppm): 95% | Postemergence herbicidal activity VIOTR ([10]; 15.6 ppm): 90% | Postemergence herbicidal activity POLCO ([11]; 15.6 ppm): 98% | Postemergence herbicidal activity AVEFA ([12]; 15.6 ppm): 98% | Preemergence herbicidal activity SORBI ([13]; 17.5 g/Ha): 95% | Preemergence herbicidal activity ECHCG ([14]; 17.5 g/Ha): 60% | Preemergence herbicidal activity ALOMY ([15]; 17.5 g/Ha): 100% | Preemergence herbicidal activity XANST ([16]; 17.5 g/Ha): 80% | Preemergence herbicidal activity DIGSA ([17]; 17.5 g/Ha): 80% | Preemergence herbicidal activity SETFA ([18]; 17.5 g/Ha): 100% | Preemergence herbicidal activity IPOHE ([19]; 17.5 g/Ha): 85% | Preemergence herbicidal activity AMARE ([20]; 17.5 g/Ha): 100% | Preemergence herbicidal activity ABUTH ([21]; 17.5 g/Ha): 75% | Preemergence herbicidal activity AVEFA ([22]; 17.5 g/Ha): 75% | Preemergence herbicidal activity EPHHL ([23]; 17.5 g/Ha): 85%
